Test [1] concerns the target T1, bradykinin 1 receptor (B1R) of the rat (Rattus norvegicus, UniProt P97583).
T1 construct: expressed in transfected cells; host or cells: CHO K1 cells
T1 sequence (P97583 1-337): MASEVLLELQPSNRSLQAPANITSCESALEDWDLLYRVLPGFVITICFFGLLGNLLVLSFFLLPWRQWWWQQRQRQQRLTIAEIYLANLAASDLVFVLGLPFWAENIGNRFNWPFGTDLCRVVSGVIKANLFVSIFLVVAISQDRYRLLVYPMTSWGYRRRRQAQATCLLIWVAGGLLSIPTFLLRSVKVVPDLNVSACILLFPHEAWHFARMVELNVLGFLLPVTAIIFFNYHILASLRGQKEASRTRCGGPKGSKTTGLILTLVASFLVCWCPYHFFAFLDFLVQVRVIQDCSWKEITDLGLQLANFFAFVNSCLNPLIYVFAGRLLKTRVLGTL
As to the kind of experiment: Functional investigation on the rat bradykinin 1 receptor (B1R), Ca2+ FLIPR assay in CHO K1 rB1R cells. The test is classed as cell-based. To be noted: B1R antagonism rat; test substance 10 μM; Ca2+ FLIPR, CHO K1 rB1R cells. Put shortly: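 Cells were dye-loaded with Fluo-4 plus probenecid, then test substances added and Ca2+ influx compared with agonist control for % activation. After 10-20 min, EC80 agonist (Lys-Des-Arg9-bradykinin human; Des-Arg9-bradykinin rat) was applied; suppression gave % inhibition and IC50 values.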

The next test addresses T2, human μ opiate receptor (Homo sapiens, UniProt P35372).
T2 construct: purchased PerkinElmer Life Sciences, Zaventem, Belgium RB-HOM; host or cells: CHO-K1 cells (membrane preparation)
As to the kind of experiment: Affinity for the human μ opiate receptor ([3H]-naloxone displacement, CHO-K1 receptor membrane preparation, SPA). The format is binding. The note with it: test concentration of 1 μM. Put shortly:
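Membranes from CHO-K1 cells expressing the human μ opiate receptor (15-40 μg protein per well) were incubated with test compound, 1 nmol/l [3H]-naloxone and WGA-SPA beads in 50 mmol/l Tris-HCl with 0.06% BSA for 90 minutes at room temperature. Values are % inhibition of specific binding at 1 μmol/l.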

T2 sequence (P35372 whole entry): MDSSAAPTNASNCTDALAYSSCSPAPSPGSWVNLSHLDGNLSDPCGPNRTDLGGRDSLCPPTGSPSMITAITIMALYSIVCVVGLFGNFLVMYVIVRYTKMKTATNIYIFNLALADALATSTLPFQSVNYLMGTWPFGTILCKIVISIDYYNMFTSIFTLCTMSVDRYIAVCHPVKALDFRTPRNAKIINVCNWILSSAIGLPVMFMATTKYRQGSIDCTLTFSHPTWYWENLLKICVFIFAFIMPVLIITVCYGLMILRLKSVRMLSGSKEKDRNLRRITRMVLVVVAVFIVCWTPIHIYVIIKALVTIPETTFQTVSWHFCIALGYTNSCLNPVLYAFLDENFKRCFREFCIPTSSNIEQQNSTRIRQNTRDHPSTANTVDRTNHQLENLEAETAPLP

For the molecule `COc1cc(C)c(S(=O)(=O)N(CCOCC(=O)NCC2CCC(C(c3ccc(F)cc3)N(C)C)CC2)Cc2ccccc2)c(C)c1` (stereo not shown) [Example 494], the “B1R Ant. r [10 μM] % Inhibition” value in test [1] was determined as 36%. Also, on human μ opiate receptor, the “μ (binding on the μ opioid receptor, % inhibition)” value amounted to 42%.

For the molecule `CN(C)C(CCc1ccccc1)C1CCC(CNC(=O)COC2CCN(S(=O)(=O)c3ccc(Cl)cc3Cl)C2)CC1` (stereo not shown) [Example 496], in test [1], the “B1R Ant. r [10 μM] % Inhibition” value is given as 35%. At human μ opiate receptor, the “μ (binding on the μ opioid receptor, % inhibition)” value was determined as 41%.

For the molecule `COc1ccc(S(=O)(=O)N2CCC(OCC(=O)NCC3CCC(C(c4ccc(F)cc4)N(C)C)CC3)C2)cc1OC` (stereo not shown) [Example 497], the “B1R Ant. r [10 μM] % Inhibition” value in test [1] worked out at 17%. At human μ opiate receptor, the “μ (binding on the μ opioid receptor, % inhibition)” value is given as 37%.

As to `COc1cc(C)c(S(=O)(=O)N2CCC(OCC(=O)NCC3CCC(C(c4ccc(Cl)cc4)N(C)C)CC3)CC2)c(C)c1C` (stereo not shown) [Example 498], in test [1], the “B1R Ant. r [10 μM] % Inhibition” value came to 2%. Further, the “μ (binding on the μ opioid receptor, % inhibition)” value at human μ opiate receptor is on record as 36%.

Take `COc1cc(C)c(S(=O)(=O)N2CCC(CCOCC(=O)NCC3CCC(C(c4ccc(Cl)cc4)N(C)C)CC3)CC2)c(C)c1C` (stereo not shown) [Example 499]: in test [1], the “B1R Ant. r [10 μM] % Inhibition” value is listed as −10%. Moreover, the “μ (binding on the μ opioid receptor, % inhibition)” value at human μ opiate receptor was 37%.

For the molecule `COc1ccc(S(=O)(=O)N2CCCCC2COCC(=O)NCCC2CCC(C(c3ccc(F)cc3)N(C)C)CC2)c(OC)c1` (stereo not shown) [Example 500], the “B1R Ant. r [10 μM] % Inhibition” value in test [1] stood at 23%. Further, the “μ (binding on the μ opioid receptor, % inhibition)” value at human μ opiate receptor stood at 43%.

For `Cc1cc(C)c(S(=O)(=O)N2CCC(OCC(=O)NCCC3CCC(C(c4ccc(F)cc4)N(C)C)CC3)C2)c(C)c1` (stereo not shown) [Example 501], in test [1], the “B1R Ant. r [10 μM] % Inhibition” value is listed as 38%. In addition, the “μ (binding on the μ opioid receptor, % inhibition)” value on human μ opiate receptor is listed as 45%.

On to `CN(C)C(c1ccc(F)cc1)C1CCC(NC(=O)COCCN2CCN(S(=O)(=O)c3ccccc3)CC2)CC1` (stereo not shown) [Example 502], for which, in test [1], the “B1R Ant. r [10 μM] % Inhibition” value is reported as 21%. Besides, the “μ (binding on the μ opioid receptor, % inhibition)” value on human μ opiate receptor is 33%.

For `COc1cc(C)c(S(=O)(=O)N2CCC(OCC(=O)NCC3CCC(C(CCc4ccccc4)N(C)C)CC3)C2)c(C)c1C` (stereo not shown) [Example 503], the “B1R Ant. r [10 μM] % Inhibition” value in test [1] is on record as 37%. Moreover, the “μ (binding on the μ opioid receptor, % inhibition)” value on human μ opiate receptor worked out at 37%.

Take `COc1cc(C)c(S(=O)(=O)N(CCOCC(=O)NC2CCC(C(c3ccc(F)cc3)N(C)C)CC2)Cc2ccccc2)c(C)c1` (stereo not shown) [Example 504]: the “B1R Ant. r [10 μM] % Inhibition” value in test [1] stood at 48%. Besides, the “μ (binding on the μ opioid receptor, % inhibition)” value on human μ opiate receptor was 43%.

With `Cc1cc(C)c(S(=O)(=O)N2CCC(OCC(=O)NCCC3CCC(C(c4ccc(Cl)cc4)N(C)C)CC3)C2)c(C)c1` (stereo not shown) [Example 506], in test [1], the “B1R Ant. r [10 μM] % Inhibition” value is 23%. The “μ (binding on the μ opioid receptor, % inhibition)” value at human μ opiate receptor was 42%.

Regarding `CN(C)C(c1ccccc1)C1CCC(CNC(=O)COCCC2CCN(S(=O)(=O)c3ccccc3)CC2)CC1` (stereo not shown) [Example 507], in test [1], the “B1R Ant. r [10 μM] % Inhibition” value is reported as 3%. Besides, at human μ opiate receptor, the “μ (binding on the μ opioid receptor, % inhibition)” value was found to be 32%.

As to `COc1ccc(S(=O)(=O)N(C)CCOCC(=O)NCC2CCC(C(c3ccc(F)cc3)N(C)C)CC2)cc1` (stereo not shown) [Example 508], the “B1R Ant. r [10 μM] % Inhibition” value in test [1] turned out to be 42%. In addition, the “μ (binding on the μ opioid receptor, % inhibition)” value on human μ opiate receptor came to 31%.

`COc1cc(C)c(S(=O)(=O)N2CCC(OCC(=O)NCCC3CCC(C(c4ccc(F)cc4)N(C)C)CC3)C2)c(C)c1` (stereo not shown) [Example 509]: the “B1R Ant. r [10 μM] % Inhibition” value in test [1] worked out at 94%. Also, the “μ (binding on the μ opioid receptor, % inhibition)” value on human μ opiate receptor came to 43%.

Regarding `COc1cc(C)c(S(=O)(=O)N2CCC(CCOCC(=O)NCCC3CCC(C(c4ccc(F)cc4)N(C)C)CC3)CC2)c(C)c1C` (stereo not shown) [Example 510], in test [1], the “B1R Ant. r [10 μM] % Inhibition” value is listed as 27%. For the same molecule, the “μ (binding on the μ opioid receptor, % inhibition)” value at human μ opiate receptor is reported as 33%.

Consider `COc1ccc(S(=O)(=O)N2CCCC2COCC(=O)NCC2CCC(C(c3ccc(F)cc3)N(C)C)CC2)cc1` (stereo not shown) [Example 511], for which the “B1R Ant. r [10 μM] % Inhibition” value in test [1] is given as 17%. The “μ (binding on the μ opioid receptor, % inhibition)” value on human μ opiate receptor is listed as 39%.

Take `COc1ccc(S(=O)(=O)N2CCC(OCC(=O)NC3CCC(C(c4ccc(F)cc4)N(C)C)CC3)C2)cc1OC` (stereo not shown) [Example 512]: the “B1R Ant. r [10 μM] % Inhibition” value in test [1] worked out at 38%. The “μ (binding on the μ opioid receptor, % inhibition)” value at human μ opiate receptor is given as 42%.

Values taken from patent US8106055B2, “Substituted amide compounds” (Gruenenthal GmbH, priority 2007, dated 2012).
